Data: the OligoGym collection
Values joined by “and” are separate entries in the source; they are usually repeats but may differ in a detail not shown here. Identical values can stand only once. After the bases stand the sugars from the 5' end (letter, count) and the backbone: PS all phosphorothioate, else s phosphorothioate and o phosphodiester by linkage. Methylation of C is not given here. e = 2'-O-(2-methoxyethyl) (MOE); k = constrained ethyl (cEt); d = 2'-deoxy (DNA)

Molecular target: SOD1
Details: ASO

Sequence “AGTGTTTAATGTTTAT (sugars kekeddddddddekek, linkages s1 o3 s8 o1 s2)” has a target mRNA inhibition (A431, 0.12 µM) of 2%, a target mRNA inhibition (A431, 0.6 µM) of 31% and a target mRNA inhibition (A431, 3 µM) of 47%. It also gave a target mRNA inhibition (A431, 15 µM) of 61%.
Sequence “AGTGTTTAATGTTTATC (sugars e2 k2 d9 k2 e2, PS)” has a target mRNA inhibition (HepG2, 0.1875 µM) of 35%, a target mRNA inhibition (HepG2, 0.75 µM) of 66% and a target mRNA inhibition (HepG2, 3 µM) of 83%. The target mRNA inhibition (HepG2, 4 µM) was 75%, the target mRNA inhibition (HepG2, 5 µM) was 80% and the target mRNA inhibition (HepG2, 12 µM) was 84% and 87%.
“AGTGTTTAATGTTTATCA (sugars e5 d8 e5, linkages s1 o3 s9 o2 s2)” gave a target mRNA inhibition (A431, 0.12 µM) of 2%, a target mRNA inhibition (A431, 0.6 µM) of 35% and a target mRNA inhibition (A431, 3 µM) of 52%. The target mRNA inhibition (A431, 15 µM) was 67%, the target mRNA inhibition (HepG2, 0.222 µM) was 33% and the target mRNA inhibition (HepG2, 0.667 µM) was 58%. The target mRNA inhibition (HepG2, 2 µM) was 74% and the target mRNA inhibition (HepG2, 6 µM) was 86%.
“AGTTTAATACCCATCTG (sugars e2 k2 d8 k2 e3, PS)” gave a target mRNA inhibition (HepG2, 5 µM) of 29%.
In the case of “AGTTTCTCACTACAGGT (sugars e2 k2 d9 k2 e2, PS)”, the target mRNA inhibition (HepG2, 5 µM) is reported as 50%.
Work on “ATAAAACTATACAAATC (sugars e3 k2 d7 k2 e3, PS)” yielded a target mRNA inhibition (HepG2, 3 µM) of 14%.
For “ATAAGTGCCATACAGGG (sugars e2 k2 d9 k2 e2, PS)”, the target mRNA inhibition (HepG2, 5 µM) was 46%.
For “ATACAAATCTTCCAAGT (sugars e3 k2 d7 k2 e3, PS)”, the target mRNA inhibition (HepG2, 3 µM) was 15%.
With “ATACAGGTCATTGAAAC (sugars e3 k2 d7 k2 e3, PS)” the target mRNA inhibition (HepG2, 3 µM) was 14%.
“ATAGAGGATTAAAGTGA (sugars e3 k2 d7 k2 e3, PS)” gave a target mRNA inhibition (HepG2, 3 µM) of 9%.
“ATAGCCTCATAATAAGT (sugars e2 k2 d8 k2 e3, PS)” gave a target mRNA inhibition (HepG2, 5 µM) of 20%.
“ATAGCCTCATAATAAGT (sugars e2 k2 d9 k2 e2, PS)” showed a target mRNA inhibition (HepG2, 5 µM) of 27%.
For “ATCAGTTTCTCACTACA (sugars e2 k2 d9 k2 e2, PS)”, the target mRNA inhibition (HepG2, 5 µM) was 44%.
Work on “ATCCAAGGGAATGTTTA (sugars e3 k2 d7 k2 e3, PS)” yielded a target mRNA inhibition (HepG2, 3 µM) of 42%.
“ATCCTTTGGCCCACCGT (sugars e3 k2 d7 k2 e3, PS)” gave a target mRNA inhibition (HepG2, 3 µM) of 51%.
Work on “ATCTGTGATTTAAGTCT (sugars e2 k2 d8 k2 e3, PS)” yielded a target mRNA inhibition (HepG2, 5 µM) of 35%.
For “ATCTTCCAAGTGATCAT (sugars e2 k2 d8 k2 e3, PS)”, the target mRNA inhibition (HepG2, 5 µM) was 38%.
With “ATGATGCCCTGCACTGGGCC (sugars e5 d10 e5, PS)” the target mRNA inhibition (HepG2, 4 µM) was 20%.
Work on “ATGCCTCTCTTCATCCT (sugars e3 k2 d7 k2 e3, PS)” yielded a target mRNA inhibition (HepG2, 3 µM) of 0%.
“ATGTTTATCAGGATACA (sugars eeeeddddddddkekee, linkages s1 o2 s9 o2 s2)” gave a target mRNA inhibition (A431, 0.062 µM) of 12%, a target mRNA inhibition (A431, 0.185 µM) of 19% and a target mRNA inhibition (A431, 0.556 µM) of 29%. The target mRNA inhibition (A431, 1.667 µM) was 38%, the target mRNA inhibition (A431, 5 µM) was 51% and 50% and the target mRNA inhibition (A431, 15 µM) was 61%. It also gave a target mRNA inhibition (SH-SY5Y, 0.062 µM) of 15%, a target mRNA inhibition (SH-SY5Y, 0.185 µM) of 27% and a target mRNA inhibition (SH-SY5Y, 0.556 µM) of 52%. It also gave a target mRNA inhibition (SH-SY5Y, 1.667 µM) of 63%, a target mRNA inhibition (SH-SY5Y, 5 µM) of 79% and a target mRNA inhibition (SH-SY5Y, 15 µM) of 92%.
“ATGTTTATTGGGCGATC (sugars e2 k2 d9 k2 e2, PS)” was tested, and the target mRNA inhibition (HepG2, 4 µM) was 64%.
In the case of “ATTCACAGGCTTGAATG (sugars e3 k2 d7 k2 e3, PS)”, the target mRNA inhibition (HepG2, 3 µM) is reported as 11%.
In the case of “ATTGAAACAGACATTTTAAC (sugars e5 d10 e5, PS)”, the target mRNA inhibition (HepG2, 5 µM) is reported as 0%.
With “ATTTCTACAGCTAGCAG (sugars e3 k2 d7 k2 e3, PS)” the target mRNA inhibition (HepG2, 3 µM) was 45%.
“ATTTCTACAGCTAGCAGGAT (sugars e5 d10 e5, PS)” was tested, and the target mRNA inhibition (HepG2, 4 µM) was 69% and the target mRNA inhibition (HepG2, 12 µM) was 82%.
“CAAATCTTCCAAGTGAT (sugars e3 k2 d7 k2 e3, PS)” showed a target mRNA inhibition (HepG2, 3 µM) of 18%.
In the case of “CAAGGGAATGTTTATTG (sugars e3 k2 d7 k2 e3, PS)”, the target mRNA inhibition (HepG2, 3 µM) is reported as 19%.
“CAAGTTTAATACCCATC (sugars e2 k2 d9 k2 e2, PS)” gave a target mRNA inhibition (HepG2, 5 µM) of 62%.
For “CAATTACACCACAAGCC (sugars e3 k2 d7 k2 e3, PS)”, the target mRNA inhibition (HepG2, 3 µM) was 33%.
Work on “CACAGGCTTGAATGACA (sugars e2 k2 d8 k2 e3, PS)” yielded a target mRNA inhibition (HepG2, 5 µM) of 34%.
In the case of “CACAGGCTTGAATGACA (sugars e2 k2 d9 k2 e2, PS)”, the target mRNA inhibition (HepG2, 5 µM) is reported as 47%.
“CACCACAAGCCAAACGA (sugars e2 k2 d9 k2 e2, PS)” was tested, and the target mRNA inhibition (HepG2, 4 µM) was 46%.
In the case of “CACCGTGTTTTCTGGATAGA (sugars e5 d10 e5, PS)”, the target mRNA inhibition (HepG2, 5 µM) is reported as 24% and 11%.
With “CACTACAGGTACTTTAA (sugars e2 k2 d9 k2 e2, PS)” the target mRNA inhibition (HepG2, 5 µM) was 38%.
For “CACTTTTAAGATTACAG (sugars e2 k2 d8 k2 e3, PS)”, the target mRNA inhibition (HepG2, 5 µM) was 37%.
Work on “CAGCTAGCAGGATAACA (sugars e2 k2 d8 k2 e3, PS)” yielded a target mRNA inhibition (HepG2, 4 µM) of 71%.
Work on “CAGCTAGCAGGATAACA (sugars e2 k2 d9 k2 e2, PS)” yielded a target mRNA inhibition (HepG2, 4 µM) of 61%.
